Common to all, as to assay: microbe, parasite or virus in culture
Format in all cases: cell-based

Assay [1] relates to influenza A virus minigenome (PB2, PB1, PA, NP; luciferase reporter) in 293T cells, RNP_Alaska. Particulars: HEK-293T, 48 h.
Assay [2] has as its system influenza A virus minigenome (PB2, PB1, PA, NP; luciferase reporter) in 293T cells, RNP_Hubei. Particulars: HEK-293T, 48 h.
The subject of assay [3] is influenza A virus minigenome (PB2, PB1, PA, NP; luciferase reporter) in 293T cells, RNP_CAL. Particulars: HEK-293T, 48 h, read-out: RNP_CAL_EC50.

Some results are limits rather than exact numbers.

EC50 data for 15 compounds are collected here from patent US12071441B2, “10-(di(phenyl)methyl)-4-hydroxy-8,9,9A,10-tetrahydro-7H-pyrrolo[1′,2′:4,5]pyrazino[1,2-b]pyridazine-3,5-dione derivatives and related compounds as inhibitors of the orthomyxovirus replication for treating influenza” (Novartis AG, priority 2018, dated 2024).

For the compound `COCCOC(=O)Oc1c2n(ncc1=O)[C@@H]([C@H](c1cccc(F)c1)c1cccc(F)c1F)[C@H]1CCCN1C2=O` [Example 97, (9aR,10S)-10-((R)-(2,3-difluorophenyl)(3-fluorophenyl)methyl)-3,5-dioxo-3,5,8,9,9a,10-hexahydro-7H-pyrrolo[1′,2′:4,5]pyrazino[1,2-b]pyridazin-4-yl (2-methoxyethyl) carbonate], the EC50 in assay [1], in assay [2] and in assay [3] was less than 0.1 µM each time.
Regarding `O=C(Oc1c2n(ncc1=O)[C@@H]([C@H](c1cccc(F)c1)c1cccc(F)c1F)[C@H]1CCCN1C2=O)N1CCCCC1` [Example 98, (9aR,10S)-10-((R)-(2,3-difluorophenyl)(3-fluorophenyl)methyl)-3,5-dioxo-3,5,8,9,9a,10-hexahydro-7H-pyrrolo[1′,2′:4,5]pyrazino[1,2-b]pyridazin-4-yl piperidine-1-carboxylate], the EC50 in assay [1], in assay [2] and in assay [3] was no less than 1 µM each time.
On to `COCCOC(=O)OCOc1c2n(ncc1=O)[C@@H]([C@H](c1cccc(F)c1)c1cccc(F)c1F)[C@H]1CCCN1C2=O` [Example 99, (((9aR,10S)-10-((R)-(2,3-difluorophenyl)(3-fluorophenyl)methyl)-3,5-dioxo-3,5,8,9,9a,10-hexahydro-7H-pyrrolo[1′,2′:4,5]pyrazino[1,2-b]pyridazin-4-yl)oxy)methyl (2-methoxyethyl) carbonate], for which the EC50 in assay [1], in assay [2] and in assay [3] was less than 0.1 µM throughout.
For the compound `CN1CCN(C(=O)Oc2c3n(ncc2=O)[C@@H]([C@H](c2cccc(F)c2)c2cccc(F)c2F)[C@H]2CCCN2C3=O)CC1` [Example 100, (9aR,10S)-10-((R)-(2,3-difluorophenyl)(3-fluorophenyl)methyl)-3,5-dioxo-3,5,8,9,9a,10-hexahydro-7H-pyrrolo[1′,2′:4,5]pyrazino[1,2-b]pyridazin-4-yl 4-methylpiperazine-1-carboxylate], the EC50 in assay [1] is no less than 1 µM; in assay [2] it was 0.1 to 1 µM; in assay [3], no less than 1 µM.
`O=C(Oc1c2n(ncc1=O)[C@@H]([C@H](c1cccc(F)c1)c1cccc(F)c1F)[C@H]1CCCN1C2=O)N1CCC(N2CCCCC2)CC1` [Example 102, (9aR,10S)-10-((R)-(2,3-difluorophenyl)(3-fluorophenyl)methyl)-3,5-dioxo-3,5,8,9,9a,10-hexahydro-7H-pyrrolo[1′,2′:4,5]pyrazino[1,2-b]pyridazin-4-yl [1,4′-bipiperidine]-1′-carboxylate]: the EC50 in assay [1], in assay [2] and in assay [3] was no less than 1 µM each time.
With `COC(=O)C(C)(C)OC(=O)OCOc1c2n(ncc1=O)[C@@H]([C@H](c1cccc(F)c1)c1cccc(F)c1F)[C@H]1CCCN1C2=O` [Example 104, methyl 2-((((((9aR,10S)-10-((R)-(2,3-difluorophenyl)(3-fluorophenyl)methyl)-3,5-dioxo-3,5,8,9,9a,10-hexahydro-7H-pyrrolo[1′,2′:4,5]pyrazino[1,2-b]pyridazin-4-yl)oxy)methoxy)carbonyl)oxy)-2-methylpropanoate], the EC50 in assay [1], in assay [2] and in assay [3] was 0.1 to 1 µM in each case.
Take `CC(=O)Oc1c2n(ncc1=O)[C@@H]([C@H](c1cccc(F)c1)c1cccc(F)c1F)[C@H]1CCCN1C2=O` [Example 105, (9aR,10S)-10-((R)-(2,3-difluorophenyl)(3-fluorophenyl)methyl)-3,5-dioxo-3,5,8,9,9a,10-hexahydro-7H-pyrrolo[1′,2′:4,5]pyrazino[1,2-b]pyridazin-4-yl acetate]: the EC50 in assay [1], in assay [2] and in assay [3] was less than 0.1 µM in each case.
For `CCC(=O)Oc1c2n(ncc1=O)[C@@H]([C@H](c1cccc(F)c1)c1cccc(F)c1F)[C@H]1CCCN1C2=O` [Example 106, (9aR,10S)-10-((R)-(2,3-difluorophenyl)(3-fluorophenyl)methyl)-3,5-dioxo-3,5,8,9,9a,10-hexahydro-7H-pyrrolo[1′,2′:4,5]pyrazino[1,2-b]pyridazin-4-yl propionate], the EC50 in assay [1], in assay [2] and in assay [3] was less than 0.1 µM each time.
Regarding `CC(C)C(=O)Oc1c2n(ncc1=O)[C@@H]([C@H](c1cccc(F)c1)c1cccc(F)c1F)[C@H]1CCCN1C2=O` [Example 107, (9aR,10S)-10-((R)-(2,3-difluorophenyl)(3-fluorophenyl)methyl)-3,5-dioxo-3,5,8,9,9a,10-hexahydro-7H-pyrrolo[1′,2′:4,5]pyrazino[1,2-b]pyridazin-4-yl isobutyrate], the EC50 in assay [1], in assay [2] and in assay [3] was less than 0.1 µM throughout.
For the compound `CC(C)C(=O)OCOc1c2n(ncc1=O)[C@@H]([C@H](c1cccc(F)c1)c1cccc(F)c1F)[C@H]1CCCN1C2=O` [Example 108, (((9aR,10S)-10-((R)-(2,3-difluorophenyl)(3-fluorophenyl)methyl)-3,5-dioxo-3,5,8,9,9a,10-hexahydro-7H-pyrrolo[1′,2′:4,5]pyrazino[1,2-b]pyridazin-4-yl)oxy)methyl isobutyrate], the EC50 in assay [1], in assay [2] and in assay [3] was less than 0.1 µM in each case.
`CC(C)CC(=O)Oc1c2n(ncc1=O)[C@@H]([C@H](c1cccc(F)c1)c1cccc(F)c1F)[C@H]1CCCN1C2=O` [Example 110, (9aR,10S)-10-((R)-(2,3-difluorophenyl)(3-fluorophenyl)methyl)-3,5-dioxo-3,5,8,9,9a,10-hexahydro-7H-pyrrolo[1′,2′:4,5]pyrazino[1,2-b]pyridazin-4-yl 3-methylbutanoate]: the EC50 in assay [1], in assay [2] and in assay [3] was less than 0.1 µM each time.
On to `COCCC(=O)Oc1c2n(ncc1=O)[C@@H]([C@H](c1cccc(F)c1)c1cccc(F)c1F)[C@H]1CCCN1C2=O` [Example 112, (9aR,10S)-10-((R)-(2,3-difluorophenyl)(3-fluorophenyl)methyl)-3,5-dioxo-3,5,8,9,9a,10-hexahydro-7H-pyrrolo[1′,2′:4,5]pyrazino[1,2-b]pyridazin-4-yl 3-methoxypropanoate], for which the EC50 in assay [1], in assay [2] and in assay [3] was less than 0.1 µM throughout.
For `CC(=O)OCOc1c2n(ncc1=O)[C@@H]([C@H](c1cccc(F)c1)c1cccc(F)c1F)[C@H]1CCCN1C2=O` [Example 114, (((9aR,10S)-10-((R)-(2,3-difluorophenyl)(3-fluorophenyl)methyl)-3,5-dioxo-3,5,8,9,9a,10-hexahydro-7H-pyrrolo[1′,2′:4,5]pyrazino[1,2-b]pyridazin-4-yl)oxy)methyl acetate], the EC50 in assay [1], in assay [2] and in assay [3] was less than 0.1 µM throughout.
In the case of `COC(=O)Oc1c2n(ncc1=O)[C@@H]([C@H](c1cccc(F)c1)c1cccc(F)c1F)[C@H]1CCCN1C2=O` [Example 115, (9aR,10S)-10-((R)-(2,3-difluorophenyl)(3-fluorophenyl)methyl)-3,5-dioxo-3,5,8,9,9a,10-hexahydro-7H-pyrrolo[1′,2′:4,5]pyrazino[1,2-b]pyridazin-4-yl methyl carbonate], the EC50 in assay [1], in assay [2] and in assay [3] was less than 0.1 µM throughout.
Take `Cc1oc(=O)oc1COc1c2n(ncc1=O)[C@@H]([C@H](c1cccc(F)c1)c1cccc(F)c1F)[C@H]1CCCN1C2=O` [Example 116, (9aR,10S)-10-((R)-(2,3-difluorophenyl)(3-fluorophenyl)methyl)-4-((5-methyl-2-oxo-1,3-dioxol-4-yl)methoxy)-8,9,9a,10-tetrahydro-7H-pyrrolo[1′,2′:4,5]pyrazino[1,2-b]pyridazine-3,5-dione]: the EC50 in assay [1], in assay [2] and in assay [3] was less than 0.1 µM each time.
